Row | Compound | melting point [°C]
1 | O=C(NCc1ccc(Cl)c(C(F)(F)F)c1)Nc1cccc2[nH]ccc12 | 197
2 | COc1cc2c(=O)c(C)cn3c4cc(Br)ccc4c(c1)c23 | 201 to 204
3 | Cc1ccc(S(=O)(=O)N2CCC[C@H]2CN2CCN(C)CC2)cc1 | 96.5 to 97.7
4 | C[Si](C)(C)C#Cc1c2ccccc2c2ccc3c(C#C[Si](C)(C)C)c4ccccc4c4ccc1c2c34 | 286 to 288
5 | O=C(NOCCO)c1ccc(F)c(F)c1Nc1ccc(I)cc1Cl | 173 to 175
6 | CN1CCN(c2cc3c(cc2F)c(=O)c(C(=O)O)c2ccccn23)CC1 | 264 to 266
7 | Clc1cc2c(cc1Cn1c(Sc3ccccc3)nc(Br)c1Br)OCO2 | 165
8 | CC(C)(C)C(=O)C(CS(=O)(=O)c1ccccc1)n1cncn1 (centres undefined) | 135
9 | S=C1CC(c2ccc(Cl)cc2)Oc2ccccc21 (centres undefined) | 116 to 120
10 | CCOC(=O)c1cc2c(C)cccc2n1CCNC(=O)OC(C)(C)C | 93 to 94
11 | COC(=O)c1cccc(-c2nc(COc3ccc(CCl)cc3OC)c(C)o2)c1 | 125 to 126
12 | Cc1c(C)c2c(c(C)c1O)CCC(C)(O)O2 (centres undefined) | 105 to 107
13 | O=C(O)COc1ccc2c(c1)sc1cc3ccccc3c(-c3ccc(OC(Cc4ccccc4)C(=O)O)cc3)c12 (centres undefined) | 191 to 201
14 | CC(=O)NCc1cccc2c1C(=O)N(C1CCC(=O)NC1=O)C2=O (centres undefined) | 177 to 179
15 | O=C1c2cccc3cccc(c23)N1CCCl | 136
16 | O=S(=O)(NCCCCCCCCn1ccnc1)c1ccc(Cl)cc1 | 54 to 56
17 | Cc1ccc(C2c3c(C)c(NCc4ccc(F)cc4)c(C)c(C)c3OC2(C)C)cc1 (centres undefined) | 92 to 94
18 | CC(C)(C)OC(=O)N1CCC2(CC1)NC(c1nc(-c3ccccc3)c[nH]1)Cc1c2[nH]c2ccccc12 (centres undefined) | 118 to 120
19 | COP(=O)(Cc1cc(C)c(C)cc1CP(=O)(OC)OC)OC | 66 to 69
20 | COc1ccccc1N1CCN(CC(O)COc2ccc3cc(C(N)=O)oc3c2)CC1 (centres undefined) | 152 to 154

Row | Compound | melting point [°C]
21 | O=C(c1ccccc1)c1ccc(OCCOCCO)cc1 | 31 to 32
22 | CCOc1c(C=C2CCn3c2nc2cc(NC(=O)C(=O)O)ccc2c3=O)cccc1OC | 220 to 222
23 | COC(=O)CN(C(=O)CSc1nc2c(F)c(F)cc(F)c2s1)c1ccccc1 | 145 to 147
24 | COc1cc2c(c(Cl)c1Cl)C(=O)C(C(C)C)C2 (centres undefined) | 118 to 119
25 | CCCCOC(=O)c1ccc(NC(=NC(=O)OCC)SC)cc1 | 67 to 68
26 | CCS(=O)(=O)Nc1ccc2[nH]cc(C3CCN(C)CC3)c2c1 | 176 to 178
27 | O=C(NCCO[N+](=O)[O-])c1ccoc1 | 80 to 82
28 | CCCCCCCCCC(=O)Nc1cc(C(=O)O)ccc1C | 246 to 250
29 | Cc1ccc2c([nH]c3c(C(=O)O)cccc32)c1Cl | 266
30 | COC(=O)[C@H]1CC[C@H](N2CCN(c3ccc(C4CCN(C(=O)C(F)(F)F)CC4)cc3)C2=O)CC1 | 183 to 185
31 | CC1(O)CN(c2c(F)cc3c(=O)c(C(=O)O)cn(C4CC4)c3c2F)C1 | 290 to 294
32 | CCOc1ccc(-c2nnc(C#N)o2)cc1 | 110
33 | Cc1nc(N2C[C@@H](O)CC2=O)sc1C(=O)NCc1ccccc1 | 203 to 204
34 | CN1C[C@H](CCN2CCN(C(c3ccccc3)c3ccccc3)CC2)C[C@@H]2c3cccc4[nH]cc(c34)C[C@H]21 | 206 to 212
35 | CCNc1cccc2c(S(=O)(=O)Nc3ncc(Br)nc3OC)cccc12 | 216 to 218
36 | C[C@H]1Cn2c(=O)[nH]c3cc(N)cc(c32)CN1CC1CC1 | 189
37 | CCOC(=O)CC(=O)c1cccc(-n2ccnn2)c1 | 72 to 74
38 | COc1ccc(-c2ccc(C(C)C)cc2)c(C(=O)Nc2ccc(N3CCN(CC(N)=O)CC3)cc2)c1 | 207 to 209
39 | CC(C)CC(=O)Nc1c(C(=O)c2cccc(Cl)c2)[nH]c2ccc([N+](=O)[O-])cc12 | 197 to 199
